# Results as given in ChEMBL document CHEMBL1145202, “A series of ligands displaying a remarkable agonistic-antagonistic profile at the adenosine A1 receptor” (J Med Chem, 2005).
# How the values were obtained:
# [1] = target: T1, Adenosine receptor A1 (Homo sapiens) (UniProt P30542); experiment: Effect on forskolin-induced cAMP levels at human A1 adenosine receptor compared to CPA (full agonist, 100% inhibition) and DPCPX(full inverse agonist, 100% stimulation); assay type: functional
# T1 sequence (whole entry): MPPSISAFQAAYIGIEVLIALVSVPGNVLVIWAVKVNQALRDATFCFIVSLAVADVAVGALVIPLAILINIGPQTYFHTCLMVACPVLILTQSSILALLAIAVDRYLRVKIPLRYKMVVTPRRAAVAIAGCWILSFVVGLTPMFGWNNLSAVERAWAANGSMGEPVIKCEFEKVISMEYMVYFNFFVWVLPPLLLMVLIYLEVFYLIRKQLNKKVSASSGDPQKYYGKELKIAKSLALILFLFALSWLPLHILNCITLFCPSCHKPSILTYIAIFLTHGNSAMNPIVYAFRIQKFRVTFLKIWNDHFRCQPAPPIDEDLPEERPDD
# [2] = target: T2, Adenosine receptor A3 (Homo sapiens) (UniProt P0DMS8); experiment: Percent displacement of [125I]AB-MECA binding to human adenosine A3 receptor expressed in HEK 293 cells at 1 uM; assay type: cell-based; settings: HEK293
# T2 sequence (whole entry): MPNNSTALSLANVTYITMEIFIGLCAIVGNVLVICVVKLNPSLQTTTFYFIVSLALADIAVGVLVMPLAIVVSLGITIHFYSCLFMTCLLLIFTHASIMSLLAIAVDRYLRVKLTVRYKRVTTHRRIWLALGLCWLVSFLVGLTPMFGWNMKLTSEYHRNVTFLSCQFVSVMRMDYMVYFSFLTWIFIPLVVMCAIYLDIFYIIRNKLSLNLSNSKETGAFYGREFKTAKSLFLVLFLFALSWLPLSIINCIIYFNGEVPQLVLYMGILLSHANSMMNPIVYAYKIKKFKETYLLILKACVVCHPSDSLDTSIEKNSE
# Adenosine receptor A1 = target: T3, Adenosine receptor A1 (Homo sapiens, UniProt P30542); experiment: biochemical
# T3 sequence (P30542 whole entry): T1 sequence (whole entry)
# Description: Displacement of [3H]DPCPX binding to human adenosine A1 receptor expressed in CHO cells
# [3] = target: Adenosine receptor A2a (Homo sapiens) (UniProt P29274); experiment: Percent displacement of [3H]-ZM 241385 binding to human adenosine A2A receptor expressed in CHO cells at 1 uM; assay type: cell-based
# Adenosine receptor A2a (Homo sapiens), sequence (P29274 whole entry): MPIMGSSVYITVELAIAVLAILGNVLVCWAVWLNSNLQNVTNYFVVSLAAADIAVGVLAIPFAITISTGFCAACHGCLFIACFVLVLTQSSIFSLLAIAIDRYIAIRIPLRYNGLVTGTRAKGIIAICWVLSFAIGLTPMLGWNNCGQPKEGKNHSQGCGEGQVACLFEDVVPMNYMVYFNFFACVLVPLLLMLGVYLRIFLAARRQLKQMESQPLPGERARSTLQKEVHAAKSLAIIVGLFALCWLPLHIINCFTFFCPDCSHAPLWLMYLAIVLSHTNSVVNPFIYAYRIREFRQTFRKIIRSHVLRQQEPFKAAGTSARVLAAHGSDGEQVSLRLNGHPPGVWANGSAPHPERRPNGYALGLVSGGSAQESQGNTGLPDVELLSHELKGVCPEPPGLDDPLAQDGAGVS
# [4] = target: T1, Adenosine receptor A1 (Homo sapiens); experiment: Percent displacement of [3H]DPCPX binding to human adenosine A1 receptor expressed in CHO cells at 1 uM; assay type: cell-based
SMILES,Change in cAMP [1],Displacement [2],Ki (Adenosine receptor A1),Displacement [3],Displacement [4]
Cn1cnc2c(NC3CCCC3)ncnc21,72%,15%,1080 nM,–,–
COc1cccc(-c2c(C#N)c(N)nc(SCCO)c2C#N)c1,-58%,18%,4.3 nM,21%,–
N#Cc1c(N)nc(SCCO)c(C#N)c1-c1ccccc1,-72%,26%,15 nM,23%,–
N#Cc1c(N)nc(SCCO)c(C#N)c1-c1ccc(C(F)(F)F)cc1,48%,0%,150 nM,13%,–
OC[C@H]1O[C@@H](n2cnc3c(NC4CCCC4)ncnc32)[C@H](O)[C@@H]1O,-100%,–,–,–,–
N#Cc1c(N)nc(SCCO)c(C#N)c1-c1ccc(OC(F)(F)F)cc1,12%,10%,156 nM,0%,–
CN(C)c1ccc(-c2c(C#N)c(N)nc(SCCO)c2C#N)cc1,-65%,7%,245 nM,0%,–
N#Cc1c(N)nc(SCCO)c(C#N)c1-c1cccc(O)c1,-105%,16%,12 nM,25%,–
CCCn1c(=O)c2[nH]c(C3CCCC3)nc2n(CCC)c1=O,100%,–,–,–,–
N#Cc1c(N)nc(SCCO)c(C#N)c1-c1ccc(OC(F)F)cc1,4%,23%,34 nM,0%,–
N#Cc1c(N)nc(SCCO)c(C#N)c1-c1cccc(F)c1,-102%,8%,40 nM,19%,–
N#Cc1c(N)nc(SCCO)c(C#N)c1-c1ccc(O)cc1,-93%,0%,23 nM,37%,–
N#Cc1c(N)nc(SCCO)c(C#N)c1-c1cccc(OC(F)F)c1,6%,12%,40 nM,8%,–
COc1ccc(-c2c(C#N)c(N)nc(SCCO)c2C#N)cc1OC,–,0%,–,25%,25%
N#Cc1c(N)nc(SCCO)c(C#N)c1-c1cccc(C(F)(F)F)c1,85%,49%,14 nM,22%,–
N#Cc1c(N)nc(SCCO)c(C#N)c1-c1ccc(F)cc1,-51%,0%,81 nM,4%,–
N#Cc1c(N)nc(SCCO)c(C#N)c1-c1ccc2c(c1)OCO2,-111%,13%,11 nM,33%,–
Cc1cccc(-c2c(C#N)c(N)nc(SCCO)c2C#N)c1,-78%,5%,81 nM,29%,–
COc1ccc(-c2c(C#N)c(N)nc(SCCO)c2C#N)cc1,-16%,21%,41 nM,8%,–
N#Cc1c(N)nc(SCCO)c(C#N)c1-c1cccc(OC(F)(F)F)c1,80%,11%,30 nM,3%,–
Cc1ccc(-c2c(C#N)c(N)nc(SCCO)c2C#N)cc1,-16%,0%,49 nM,20%,–
